Paper PMC11093748, “De novo identification of CD4^+ T cell epitopes” (Nature Methods, 2024)

tested on: Jurkat cells, No TCR; experiment: Single SABR-II co-incubation, background without TCR; type: cell-based, human; settings: No TCR; Ext. Data Fig. 6C; 18-20 hr; technical replicate 1
From the text: (§1) We performed systematic screening of the cloned TCRs against the I-Ag7 SABR-II library. Several TCRs along with a positive control (such as BDC2.5 or 4-8Ins) were screened individually against the library for each sort (Extended Data Fig. 6a and Supplementary Table 4). High- and low-confidence ES zones for each screened TCR were defined by the ES values of the control TCR’s cognate epitopes. For all putative cognate epitopes, single SABR-IIs were constructed, expressed in NFAT–GFP Jurkat cells and used for co-incubation with the corresponding TCRs. Co-incubation assays that yielded a GFP signal higher than that obtained in assays with no TCR were determined to be positive and the epitopes deemed true cognate ligands (Extended Data Fig. 6b,c). Using this strategy, we obtained epitopes in the high-confidence zone for eight TCRs (Fig. 3a and Extended Data Fig. 6b,d). Among numerous altered peptide ligands (APLs), these TCRs recognized the physiological InsC-ChgA HIP ([…] and analogs, recognized by TCR5, TCR6B, TCR9 and TCR34), InsC-Iapp HIP ([…] and analogs, recognized by TCR4 and TCR15) and InsB9:23 ([…] and analogs recognized by TCR24 and TCR37). These cognate high-confidence hits were validated using single SABR-II co-incubation assays (Fig. 3b and Extended Data Fig. 7a). Further validations using in vitro mouse interleukin-2 (mIL-2) secretion by TCR-expressing 5KC reporter cells[13] or CD25 expression by TCR-expressing splenic CD4^+ T cells upon stimulation with the cognate epitope were performed (Extended Data Fig. 7b,c). Furthermore, low-confidence hits were called for ten TCRs and tested in co-incubation assays.
(§2) For SABR library screens, 3 × 10^6 NFAT–GFP Jurkat cells expressing the SABR library were labeled with CellTrace Violet (BioLegend) according to the manufacturer’s protocol before incubation with 3 × 10^6 Jurkat cells expressing the TCR of interest. These mixtures were incubated in a six-well plate for 16–20 h. Cells were stained with anti-CD69-APC-Cy7 where indicated (BioLegend) and the top 1–2% of GFP^+CD69^+ cells were sorted for genomic DNA extraction, indexing and sequencing (see below). Multiplexed assays were scaled on a per-TCR basis (for example 3 × 10^6 for each of three TCRs against 9 × 10^6 library cells). For single SABR assays, unless otherwise defined, 5 × 10^5 SABR expressing NFAT–GFP Jurkat cells (or 5KC cells) were labeled with CellTrace Violet (BioLegend) according to the manufacturer’s protocol before incubation with 5 × 10^5 TCR-expressing Jurkat cells (or 5KC cells) in a round-bottom 96-well plate for 16–20 h. Cells were stained with anti-CD69-APC-Cy7 when indicated and acquired on the Attune NxT flow cytometer (Thermo Fisher Scientific). All flow analysis was performed using FlowJo (BD). For Daudi cell co-culture, 1 × 10^6 Jurkat cells expressing the TCR of interest were incubated with 1 × 10^6 Daudi cells expressing a SABR of interest for 3 days. On day 3, cells were labeled with anti-RT1B-PE and anti-Fas-APC-Cy7 before being acquired on the Attune NxT flow cytometer.

| Sequence | %GFP+CD69+ cells of SABR-NFAT-GFP-Jurkat cells [%] |
| --- | --- |
| EKAHHPIWARMDAKK | 0.55 |
| EKAHLAIWARMDAKK | 0.84 |
| EKAHVPIWARMDAKK | 2.48 |
| RLGLWSRMDQLAKELTAE | 1.36 |

same assay, conditions: No TCR; Ext. Data Fig. 6C; 18-20 hr; technical replicate 2

| Sequence | %GFP+CD69+ cells of SABR-NFAT-GFP-Jurkat cells [%] |
| --- | --- |
| EKAHHPIWARMDAKK | 0.54 |
| EKAHLAIWARMDAKK | 1 |
| EKAHVPIWARMDAKK | 2.95 |
| RLGLWSRMDQLAKELTAE | 1.22 |

tested on: TCR5; experiment: Single SABR-II co-incubation, NFAT-GFP Jurkat; type: cell-based, mouse; settings: TCR 5; Ext. Data Fig. 6C; 18-20 hr; technical replicate 1
From the text: as §1, §2

| Sequence | %GFP+CD69+ cells of SABR-NFAT-GFP-Jurkat cells [%] |
| --- | --- |
| EKAHHPIWARMDAKK | 34.4 |
| EKAHLAIWARMDAKK | 79.9 |
| EKAHVPIWARMDAKK | 29.9 |
| RLGLWSRMDQLAKELTAE | 56.2 |

same assay, conditions: TCR 5; Ext. Data Fig. 6C; 18-20 hr; technical replicate 2

| Sequence | %GFP+CD69+ cells of SABR-NFAT-GFP-Jurkat cells [%] |
| --- | --- |
| EKAHHPIWARMDAKK | 35.1 |
| EKAHLAIWARMDAKK | 77.9 |
| EKAHVPIWARMDAKK | 30.2 |
| RLGLWSRMDQLAKELTAE | 56 |

tested on: BDC2.5 TCR; experiment: I-Ag7 SABR-II library screen, enrichment score; type: cell-based, mouse; settings: I-Ag7 library; EXPT1 of 8 biological experiments
From the text: We then asked whether SABR-IIs could be used to present a library of epitopes for CD4^+ T cell antigen discovery. To that end, we constructed a SABR-II library to present epitopes derived from pancreatic islets in I-Ag7 by curating a list of 4,075 published epitopes from the Immune Epitope Database (iedb.org)[50] and a study by Wan et al.[51] (Supplementary Table 1). Of note, this defined library consisted of unmodified epitopes from endogenous proteins, synthetic mimotopes, deamidated epitopes and hybrid insulin peptides (HIPs) that arise from post-translational fusion and are not genetically encoded in vivo[52],[53]. The epitope library was inserted into the I-Ag7 SABR-II backbone through pooled oligonucleotide synthesis, amplification and ligation-free cloning (Extended Data Fig. 3a). The I-Ag7 SABR-II-library was then expressed in NFAT–GFP Jurkat cells. We confirmed that after sequencing, the library accounted for a mean of 708 reads per epitope (Extended Data Fig. 3b). As a proof of concept, we performed co-incubation assays with Jurkat cells expressing the BDC2.5 TCR and sorted the top 1–2% of GFP^+CD69^+ cells at a rate of ~20 min per replicate with three replicates per TCR. We extracted the genomic DNA from sorted cells, amplified the SABR portion of the integrated proviruses and subjected the amplicons to Illumina sequencing (Extended Data Fig. 3c,d). The 1–2% sort gate represents >50-fold enrichment of cognate epitopes with minimal loss of signal (Extended Data Fig. 3e–h). Sequence reads were aligned to the I-Ag7 SABR-II backbone and the corresponding epitopes were scored based on their read counts. For each TCR under investigation, an enrichment score (ES) was determined for all the epitopes in a library. In each experiment, three replicates of a sort with TCR-expressing Jurkat cells were performed and reads were counted post-sequencing. In addition, three replicates of the unsorted library were also sequenced. A linear regression model was built using the unsorted library counts and used to determine the expected abundance of each epitope in the library. The ES was calculated based on the difference between the measured and the expected abundance of each epitope on a per-TCR basis (Fig. 1e). Based on ES values, two quantitative thresholds were used to determine putative cognate epitopes of a given TCR. A high-confidence zone containing clear outliers with a high ES and a low-confidence zone containing weak outliers with a moderately high ES were determined (Fig. 1e). This two-tiered strategy was used to call putative hits from screens. All the top-scoring epitopes for the BDC2.5 TCR were known BDC2.5 ligands containing the WXRM(D/E) motif (Fig. 1f,g, enriched ligands in red), a well-characterized trait of the BDC2.5 TCR[43],[54]–[56]. Across several independent experiments there was limited variation in ES values for the same TCRs and several epitopes fell into high- or low-confidence zones consistently (Extended Data Fig. 4a). Using a different TCR that was isolated from NOD mice, 4-8Ins[57], which recognized the InsB9:23 epitope ([…]), we observed a similar pattern of ES for cognate epitopes (Extended Data Fig. 4b).
For SABR library screens, 3 × 10^6 NFAT–GFP Jurkat cells expressing the SABR library were labeled with CellTrace Violet (BioLegend) according to the manufacturer’s protocol before incubation with 3 × 10^6 Jurkat cells expressing the TCR of interest. These mixtures were incubated in a six-well plate for 16–20 h. Cells were stained with anti-CD69-APC-Cy7 where indicated (BioLegend) and the top 1–2% of GFP^+CD69^+ cells were sorted for genomic DNA extraction, indexing and sequencing (see below). Multiplexed assays were scaled on a per-TCR basis (for example 3 × 10^6 for each of three TCRs against 9 × 10^6 library cells). […]

| Sequence | Enrichment score |
| --- | --- |
| EKAHHPIWARMDAKK | 0.000952 |
| EKAHVPIWARMDAKK | 0.000866 |
| RLGLWSRMDQLAKELTAE | 0.001771 |

same assay, conditions: I-Ag7 library; EXPT2 of 8

| Sequence | Enrichment score |
| --- | --- |
| EKAHHPIWARMDAKK | 0.00052 |
| EKAHVPIWARMDAKK | 0.000378 |
| RLGLWSRMDQLAKELTAE | 0.001151 |

same assay, conditions: I-Ag7 library; EXPT3 of 8

| Sequence | Enrichment score |
| --- | --- |
| EKAHHPIWARMDAKK | 0.00087 |
| EKAHVPIWARMDAKK | 0.000722 |
| RLGLWSRMDQLAKELTAE | 0.002655 |

same assay, conditions: I-Ag7 library; EXPT4 of 8

| Sequence | Enrichment score |
| --- | --- |
| EKAHHPIWARMDAKK | 0.00058 |
| EKAHVPIWARMDAKK | 0.00038 |
| RLGLWSRMDQLAKELTAE | 0.001435 |

same assay, conditions: I-Ag7 library; EXPT5 of 8

| Sequence | Enrichment score |
| --- | --- |
| EKAHHPIWARMDAKK | 0.001178 |
| EKAHVPIWARMDAKK | 0.000744 |
| RLGLWSRMDQLAKELTAE | 0.002428 |

same assay, conditions: I-Ag7 library; EXPT6 of 8

| Sequence | Enrichment score |
| --- | --- |
| EKAHHPIWARMDAKK | 0.001392 |
| EKAHVPIWARMDAKK | 0.001001 |
| RLGLWSRMDQLAKELTAE | 0.00271 |

same assay, conditions: I-Ag7 library; EXPT7 of 8

| Sequence | Enrichment score |
| --- | --- |
| EKAHHPIWARMDAKK | 0.000919 |
| EKAHVPIWARMDAKK | 0.000451 |
| RLGLWSRMDQLAKELTAE | 0.002468 |

same assay, conditions: I-Ag7 library; EXPT8 of 8

| Sequence | Enrichment score |
| --- | --- |
| EKAHHPIWARMDAKK | 0.000731 |
| EKAHVPIWARMDAKK | 0.000387 |
| RLGLWSRMDQLAKELTAE | 0.002661 |
